pKi: −log10 of the molar value. Values belong to the compound of their own block, whether it stands above or below them.
Legend:
[1] = clinical; settings: human, in vivo
Procedure: Eight clinical studies—including single dose pharmacokinetic (PK), multiple dose PK, efficacy, safety, and tolerability, human abuse liability, absorption, metabolism, and excretion, and safety, efficacy, and tolerability in adults with attention-deficit hyperactivity disorder—were completed with dasotraline. In those studies, single doses ranging from 0.2 mg to 36 mg and multiple doses from 0.5 mg/day to 8 mg/day for 21 to 56 days were evaluated. Dasotraline was slowly absorbed into the systemic circulation, reaching time of maximum observed plasma concentration (tmax) approximately 10 to 12 hours after single administration of doses ranging from 0.2 to 36 mg. The change in maximum observed plasma concentration (Cmax) with dose was nearly dose proportional for the same doses. […] Dasotraline is extensively metabolized by oxidation and subsequent phase II metabolism. CYP2B6 oxidizes dasotraline to “dasotraline oxime”: […]

[2] = molecular target: T1, CYP2B6 (Homo sapiens, UniProt P20813); experiment: Inhibition of CYP2B6 activity in human liver microsomes (direct and time-dependent); format: in vitro ADME
T1 construct: measuring the activity of CYP2B6 in human liver microsomes; from tissue; host or cells: human liver microsomes
T1 sequence (P20813 1-491): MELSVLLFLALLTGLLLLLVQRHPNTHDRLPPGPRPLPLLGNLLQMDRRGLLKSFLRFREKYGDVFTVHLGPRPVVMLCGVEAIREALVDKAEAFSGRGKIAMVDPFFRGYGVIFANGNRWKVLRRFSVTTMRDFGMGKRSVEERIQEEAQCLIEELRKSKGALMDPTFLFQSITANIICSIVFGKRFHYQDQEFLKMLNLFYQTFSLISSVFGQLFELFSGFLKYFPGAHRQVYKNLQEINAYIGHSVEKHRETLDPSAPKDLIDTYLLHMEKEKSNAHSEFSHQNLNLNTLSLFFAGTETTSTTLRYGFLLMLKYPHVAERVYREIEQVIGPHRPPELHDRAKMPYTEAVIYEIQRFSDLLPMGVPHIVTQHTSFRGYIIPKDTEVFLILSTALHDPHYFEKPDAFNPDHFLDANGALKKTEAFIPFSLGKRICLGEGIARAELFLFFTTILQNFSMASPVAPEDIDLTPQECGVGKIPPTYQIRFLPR
Procedure: The inhibitory potency of dasotraline was determined in vitro by measuring the activity of CYP2B6 in human liver microsomes in the presence and absence of dasotraline. […] Furthermore, dasotraline was determined to be a time-dependent inhibitor of CYP2B6 with an apparent inactivation constant of 0.12 μM and a maximal inactivation rate constant of 0.15 min-1. Based on the Food and Drug Administration Draft Guidance: Drug Interaction Studies (February 2012) and the prediction using physiologically-based PK modeling and simulation there is a potential for dasotraline to inhibit the metabolism pathway of CYP2B6 substrates through time-dependent inhibition. Therefore, the effect of dasotraline on the PK of a CYP2B6 substrate (ie, efavirenz) was studied clinically.

[3] = clinical; settings: human, in vivo; remark: listed apart in the source
Procedure: A randomized, 2-way crossover study to evaluate the effect of dasotraline on the pharmacokinetics (PK) of efavirenz, a sensitive cytochrome P450 2B6 (CYP2B6) substrate, and to assess the safety and tolerability of a single dose of dasotraline given concurrently with efavirenz was conducted.
Methodology: The study enrolled 29 healthy, non-smoking male and female subjects. All subjects were randomized to one of two treatment sequences: (A) Single doses of placebo and 400 mg efavirenz followed 28 days later by single doses of 24 mg dasotraline and 400 mg efavirenz; or (B) Single doses of 24 mg dasotraline and 400 mg efavirenz followed 28 days later by single doses of placebo and 400 mg efavirenz. Dasotraline and placebo were administered 6 hours prior to the planned dosing time of efavirenz. A screening period of approximately 4 weeks was followed by 2 treatment periods, each of which included approximately 78 hours in-clinic confinement followed by 3 outpatient follow-up visits. Dose administration occurred on Day 1 and Day 29. During the first treatment period, subjects were admitted to the clinic on Day −1, the day before first study drug administration (Day 1), and remained in clinic until discharge on Day 3. Subjects returned to the clinic for 3 subsequent visits (Days 5, 7, and 14) for PK sample collection. Following a washout period (consisting of 28 non-dosing days), subjects returned and were readmitted to the clinic for the second treatment period on Day 28, the day before the second study drug administration (Day 29), and remained in clinic until discharge on Day 31. Subjects returned to the clinic for 3 subsequent visits (Days 33, 35, and 42) for PK sample collection. Day 42 was the End of Study visit.
Evaluation: Blood for serial PK sampling was obtained from all subjects prior to efavirenz administration (pre-dose) and at specified time points after efavirenz administration on Days 1 and 29 for each treatment sequence. The recorded times for dasotraline PK plasma sample collections were relative to efavirenz dosing time. The primary parameters for efavirenz analysis were maximum observed plasma concentration (Cmax), time of maximum observed plasma concentration (tmax), area under the concentration-time curve (AUC) from time 0 to time t (AUC0-t), AUC from time 0 to the time of last measurable concentration (AUC0-last), AUC from time 0 extrapolated to infinity (AUC0-inf), terminal elimination rate constant (λZ), apparent terminal elimination half-life (t1/2), apparent total clearance (CL/F), and apparent volume of distribution during the terminal elimination phase (Vz/F). The primary parameters for dasotraline analysis were Cmax, AUC0-last, AUC0-t, and AUC0-inf.
Statistical Methods: All analyses involving PK data (e.g., plasma concentrations, derived PK parameters, assessment of drug-drug interaction) were performed on the PK population. For plasma concentrations of dasotraline and efavirenz, descriptive statistics (e.g., number, arithmetic mean, arithmetic standard deviation, minimum, median, maximum, 25th percentile, 75th percentile, geometric mean, and geometric coefficient of variation) were listed and summarized by time point by treatment for the PK population. Mean plasma concentration-time profiles were plotted by treatment on linear and semi-logarithmic scales. Individual subject linear and semi-logarithmic concentration-time plots, with respective treatments presented together, were included in the appendices.
To evaluate the effect of dasotraline on the PK of efavirenz, a mixed effect analysis of variance (ANOVA) was applied for the primary endpoint on natural log-transformed Cmax, AUC0-last, AUC0-t, and AUC0-inf of efavirenz. The model included treatment, sequence, and period as fixed effects and subject nested within sequence as a random effect. Only subjects who completed both treatment periods were included in the overall ANOVA to allow for an intra-subject comparison to be conducted. […]

Tmax [1]: 10 to 12 h
half-life [1]: 47.1 to 77 h
pKi ([2]; direct competitive inhibition, read-out: inhibition constant): 6.66
apparent inactivation constant ([2]; time-dependent inhibition): 0.12 µM
maximal inactivation rate constant ([2]; time-dependent inhibition): 0.15 min⁻¹
Compound: N[C@@H]1CC[C@@H](c2ccc(Cl)c(Cl)c2)c2ccccc21 [Dasotraline, (1R,4S)-4-(3,4-dichlorophenyl)-1,2,3,4-tetrahydronaphthalen-1-amine]

Vd/F ([3]; both sexes): 525 L
Cmax ([3]; both sexes, 400 mg): 1560 ng/mL
Vd/F ([3]; both sexes, 400 mg): 759 L
AUC(0-t) ([3]; both sexes, 400 mg, AUC0-24): 18200 ng·h/mL
AUC(0-inf) ([3]; both sexes, 400 mg, AUC0-inf): 92000 ng·h/mL
AUC(0-t) ([3]; both sexes, 400 mg, AUC0-last): 80400 ng·h/mL
half-life ([3]; both sexes, 400 mg, t1/2): 143 h
Tmax ([3]; both sexes, 400 mg, tmax, median): 3.05 h
AUC(0-t) ([3]; both sexes, Mean AUC from time 0 to 24 hours post-dose (AUC0-24)): 19000 ng·h/mL
half-life ([3]; both sexes, Mean terminal half-life): 143 h
Tmax ([3]; both sexes, Median tmax): 4 h
AUC(0-inf) ([3]; both sexes, mean AUC0-inf): 87900 ng·h/mL
AUC(0-t) ([3]; both sexes, mean AUC0-last): 112000 ng·h/mL
half-life ([3]; both sexes, t1/2): 161 h
Tmax ([3]; both sexes, tmax, median): 4 h
Mean AUC from time 0 to 24 hours post-dose (AUC0-24) ([3]; both): 17,700 h*ng/mL
Mean terminal half-life ([3]; both): 161 h
Median tmax ([3]; both): approximately 3 hours
geometric LS mean ratio for AUC0-24 ([3]; both): 107.5%
geometric LS mean ratio for AUC0-inf ([3]; both): 153.5%
geometric LS mean ratio for AUC0-last ([3]; both): 143.1%
geometric LS mean ratio for Cmax ([3]; both): 98.5%
mean AUC0-inf ([3]; both): 135,000 h*ng/mL
mean AUC0-last ([3]; both): 78,200 h*ng/mL
Compound: O=C1Nc2ccc(Cl)cc2[C@@](C#CC2CC2)(C(F)(F)F)O1 [Efavirenz]
